# Experimental data: ChEMBL document CHEMBL4130497, “Fragment-based approach to identify IDO1 inhibitor building blocks” (Eur J Med Chem, 2017)
# Tests used:
# [1] = target: Indoleamine 2,3-dioxygenase 1 (Homo sapiens, UniProt P14902); experiment: Binding affinity to NT647 dye labeled recombinant human IDO1 (1 to 403 residues) by microscale thermophoresis method
# [2] = Lipophilicity, log P of the compound in n1-octanol and water by pH-metric assay; assay type: physicochemical; settings: n-octanol/water
# [3] = Dissociation constant, pKa of the compound; assay type: physicochemical
# [4] = target: Indoleamine 2,3-dioxygenase 1 (Mus musculus) (UniProt P28776); experiment: Inhibition of mouse IDO1 expressed in mouse P1.HTR cells assessed as reduction in kynurenine production from L-Trp incubated for 16 hrs by HPLC method; assay type: cell-based
# Sequence of Indoleamine 2,3-dioxygenase 1 (Mus musculus) (P28776 whole entry, looked up): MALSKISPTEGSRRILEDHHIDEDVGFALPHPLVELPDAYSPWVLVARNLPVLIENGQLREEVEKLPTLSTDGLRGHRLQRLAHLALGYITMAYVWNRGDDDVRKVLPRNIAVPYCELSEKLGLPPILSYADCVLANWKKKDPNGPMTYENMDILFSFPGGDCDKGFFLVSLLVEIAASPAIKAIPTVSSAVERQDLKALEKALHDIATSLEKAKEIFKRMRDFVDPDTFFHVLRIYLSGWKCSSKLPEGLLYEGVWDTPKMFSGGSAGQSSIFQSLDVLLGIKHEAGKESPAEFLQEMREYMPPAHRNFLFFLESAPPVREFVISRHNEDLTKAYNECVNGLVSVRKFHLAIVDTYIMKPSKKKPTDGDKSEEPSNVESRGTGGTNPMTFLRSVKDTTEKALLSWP
# Sequence of Indoleamine 2,3-dioxygenase 1 (P14902 whole entry, the tested form may be a part): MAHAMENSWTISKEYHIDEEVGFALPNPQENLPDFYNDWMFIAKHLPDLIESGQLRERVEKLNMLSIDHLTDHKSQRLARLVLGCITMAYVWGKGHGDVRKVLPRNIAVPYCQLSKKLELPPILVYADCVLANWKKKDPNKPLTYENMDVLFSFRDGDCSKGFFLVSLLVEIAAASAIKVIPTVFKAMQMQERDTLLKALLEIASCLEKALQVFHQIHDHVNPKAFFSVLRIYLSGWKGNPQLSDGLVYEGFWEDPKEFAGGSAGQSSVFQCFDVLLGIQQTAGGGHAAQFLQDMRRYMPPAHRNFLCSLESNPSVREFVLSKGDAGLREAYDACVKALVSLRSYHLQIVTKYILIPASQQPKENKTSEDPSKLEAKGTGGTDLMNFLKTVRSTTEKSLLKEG
Kd [1] [µM],SMILES,other results
147,O=C(/C=C/N1CCOCC1)c1coc2ccccc12,
17.8,N=C(N)Sc1c[nH]c2ccccc12,logP [2]: 1.8; pKa [3]: 9.5; fold change (FC) [4]: < 0.6
> 1000,COc1ccccc1OCC(O)CNC1CCCC1 (stereo not given),
> 1000,NCC(O)COCC1COc2ccccc2O1 (stereo not given),
53.7,O=S(=O)(NCc1cccnc1)c1ccc2ccccc2c1,logP [2]: 2.5; pKa [3]: 4.8 to 10.3
941,NC(S)=NNC(=O)Nc1ccc(Cl)c(Cl)c1,
86.8,COc1ccccc1OCC(O)Cn1cnc2ccccc21 (stereo not given),

# Continued, compound first:
SMILES,Kd [1] [µM],other results
Cc1ccc(NCCNC(=O)c2c[nH]c3ccccc23)nn1,> 1000,
OC(CC1c2ccccc2-c2cncn21)C1CCCCC1 (stereo not given),,pKa [3]: 6.7
CCc1cccc2sc(NCCN3CCOCC3)nc12,33.5,logP [2]: 2.3; pKa [3]: 3.1 to 6.2
Cn1cc(C(O)CN)c2ccccc21 (stereo not given),97,
O=C1CC(NC(=O)Cn2ccc3ccccc32)CN1 (stereo not given),237,
NC(=O)c1csc(NC(=O)Cc2c[nH]c3ccccc23)c1,61.5,
NCC(O)c1cccc2ccccc12 (stereo not given),> 1000,
NC(=O)CN1CCN(c2cccc3ccccc23)C(=O)C1=O,> 1000,
COC(=O)C(N)c1ccc2ccccc2c1 (stereo not given),169,
Cc1c(C)n(CC(O)CN2CCNCC2)c2ccccc12 (stereo not given),96.7,
COc1ccc(-c2cnc(CN)[nH]2)cc1,> 500,
NCC(O)c1cc(Cl)cc(Cl)c1 (stereo not given),> 1000,
O=C(NCCn1ncccc1=O)c1ccc2ccccc2c1,240,
Cc1ccc(NCCNC(=O)c2cccc(Cl)c2)nn1,> 1000,
NCCc1nc2ccc(F)cc2[nH]1,548,
OC(c1nc2ccccc2[nH]1)C(O)c1nc2ccccc2[nH]1 (stereo not given),774,
